# Experimental data published in patent US6136831A, “Pyrazole derivatives and COX inhibitors containing them” (Grelan Pharmaceutical Co., Ltd., priority 1997, dated 2000).
# How the values were obtained:
# [1] = test system: rat adjuvant-induced arthritis; test: Inhibitory Action on Adjuvant Arthritis (1) (Assay Example 2); type: in vivo, male Fisher rats; details: oral 5 mg/kg
# Protocol: Dry Mycobacterium butyricum killed organisms (Difco) were suspended in liquid paraffin to make the concentration 1% and the resulting suspension used as an adjuvant. The adjuvant (50 μl) was subplantarly injected to the right hind paw of male Fisher rats (5 to 6 animals per group) to raise arthritis. Each test compound was suspended in a 0.5% aqueous sodium carboxymethylcellulose (CMC-Na) solution and orally administered to the rats at a dose of 5 mg/kg on days 0, 3, 7, 10, 14, 17 and 20 (7 times in total) after the arthritis induction. On the 21st disease day the rats were measured for their body weight and the edema of their right and left hind paws. Simultaneously, systemic inflammatory states were scored. In addition, each of their spleen and thymus was taken out by excision to measure their wet weight and their relative weight per 100 g body weight was calculated.
# [2] = molecular target: T1, COX-1 (Ovis aries, UniProt P05979); test: Inhibitory Activity on COX-1 (Assay Example 1); type: biochemical; details: Table 1; read-out: COX Inhibiting Activity IC50, COX-1
# T1 construct: purchased Cayman Chemical Co
# T1 sequence (P05979 25-600): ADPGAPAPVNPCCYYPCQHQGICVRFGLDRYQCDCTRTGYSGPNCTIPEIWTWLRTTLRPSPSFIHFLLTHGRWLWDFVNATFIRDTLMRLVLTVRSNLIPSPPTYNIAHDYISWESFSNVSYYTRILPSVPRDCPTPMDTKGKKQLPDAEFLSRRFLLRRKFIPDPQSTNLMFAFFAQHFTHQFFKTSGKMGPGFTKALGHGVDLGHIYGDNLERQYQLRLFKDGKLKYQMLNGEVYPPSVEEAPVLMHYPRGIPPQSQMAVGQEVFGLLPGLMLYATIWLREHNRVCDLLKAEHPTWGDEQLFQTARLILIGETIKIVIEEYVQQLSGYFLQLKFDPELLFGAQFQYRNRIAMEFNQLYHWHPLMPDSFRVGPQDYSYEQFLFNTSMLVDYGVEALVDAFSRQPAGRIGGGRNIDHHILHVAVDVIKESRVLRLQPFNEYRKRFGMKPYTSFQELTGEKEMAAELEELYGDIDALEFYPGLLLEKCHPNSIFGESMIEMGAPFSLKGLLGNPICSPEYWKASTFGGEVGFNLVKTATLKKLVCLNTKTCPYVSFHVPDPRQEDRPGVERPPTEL
# [3] = molecular target: T2, COX-2 (Ovis aries, UniProt P79208); test: Inhibitory Activity on COX-2 (Assay Example 1); type: biochemical; details: Table 1; for IC50: read-out: COX Inhibiting Activity IC50, COX-2
# T2 construct: purchased Cayman Chemical Co
# T2 sequence (P79208 17-603): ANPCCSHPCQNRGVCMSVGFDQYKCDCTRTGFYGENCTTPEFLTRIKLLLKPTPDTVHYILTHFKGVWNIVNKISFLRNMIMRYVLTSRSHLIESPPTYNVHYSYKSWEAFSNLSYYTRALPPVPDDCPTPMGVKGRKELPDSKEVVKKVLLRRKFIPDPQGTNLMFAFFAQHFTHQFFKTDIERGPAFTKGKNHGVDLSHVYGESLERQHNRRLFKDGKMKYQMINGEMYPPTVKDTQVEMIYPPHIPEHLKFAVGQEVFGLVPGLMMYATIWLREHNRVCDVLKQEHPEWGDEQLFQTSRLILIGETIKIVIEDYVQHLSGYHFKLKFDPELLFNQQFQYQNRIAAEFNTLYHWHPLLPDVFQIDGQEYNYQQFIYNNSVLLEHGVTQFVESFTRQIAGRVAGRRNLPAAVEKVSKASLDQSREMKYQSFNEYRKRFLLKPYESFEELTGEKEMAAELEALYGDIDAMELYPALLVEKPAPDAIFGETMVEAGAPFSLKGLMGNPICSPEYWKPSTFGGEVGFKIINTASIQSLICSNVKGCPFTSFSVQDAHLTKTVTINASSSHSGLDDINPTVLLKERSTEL
# [4] = molecular target: T1, COX-1; test: Inhibitory Activity on COX-1 (Assay Example 5); type: biochemical; details: Table 4; read-out: COX Inhibiting Activity IC50, COX-1
# [5] = molecular target: T2, COX-2; test: Inhibitory Activity on COX-2 (Assay Example 5); type: biochemical; details: Table 4; for IC50: read-out: COX Inhibiting Activity IC50, COX-2
# [6] = test system: adjuvant arthritis in rats; test: Inhibitory Action on Adjuvant Arthritis (2) (Assay Example 6); type: in vivo, male F344/Du (Fisher) rats; details: oral 1 mg/5 ml/kg daily, 17 days; for % Inhibition against Reduction of Gain in Body Weight / Edema Inhibition (%) Left Hind Paw (Non-inflamed Paw) / Edema Inhibition (%) Right Hind Paw (Inflamed Paw): measured next day; for % Inhibition against Change in Relative Weight, Spleen / % Inhibition against Change in Relative Weight, Thymus: relative weight per 100 g body weight; for Inflammation Score Inhibition (%): scored next day
# Protocol: A 1% dry Mycobacterium tuberculosis H37 RA killed organism suspension in liquid paraffin was employed as an adjuvant. The adjuvant suspension (50 μl) was subplantarly administered to the right hind paw of male F344/Du (Fisher) rats (5 to 6 animals per group) to raise arthritis. […] The next day after the final administration, the rats were measured for their body weight and the edema of their right and left hind paws. Simultaneously, systemic inflammatory states were scored. In addition, each of their spleen and thymus was taken out by excision to measure their wet weight and their relative weight per 100 g body weight was determined.
# [7] = 7 times, relative weight per 100 g body weight, day 21
# [8] = days 0, 3, 7, 10, 14, 17, 20, measured day 21
smiles,measurement,setting,value
"CS(=O)(=O)c1ccc(-n2nc(C(F)(F)F)cc2-c2nc3cc(F)ccc3s2)cc1 [Example 4, 5-Fluoro-2-[1-(4-methylsulfonylphenyl)-3-trifluoromethyl-1H-pyrazol-5-yl]benzothiazole]","% Inhibition against Change in Relative Weight, Spleen",[1]; [7],2.9%
same,"% Inhibition against Change in Relative Weight, Thymus",[1]; [7],148.9%
same,% Inhibition against Reduction of Gain in Body Weight,[1]; [8],78.7%
same,Edema Inhibition (%) Left Hind Paw (Non-inflamed Paw),[1]; [8],91%
same,Edema Inhibition (%) Right Hind Paw (Inflamed Paw),[1]; [8],83%
same,Inflammation Score Inhibition (%),"[1]; days 0, 3, 7, 10, 14, 17, 20, scored day 21",100%
"CS(=O)(=O)c1ccc(-n2nc(C(F)(F)F)cc2-c2nc3ccccc3s2)cc1 [Example 8, 2-[1-(4-Methylsulfonylphenyl)-3-trifluoromethyl-1H-pyrazol-5-yl]benzothiazole]",IC50,[2],> 100000 nM
same,COX-1/COX-2 (ratio of IC50 values),[3],> 294
same,IC50,[3],340 nM
"CS(=O)(=O)c1ccc(-n2nc(C(F)(F)F)cc2-c2nc3ccc(Cl)cc3s2)cc1 [Example 10, 6-Chloro-2-[1-(4-methylsulfonylphenyl)-3-trifluoromethyl-1H-pyrazol-5-yl]benzothiazole]",IC50,[2],> 100000 nM
same,COX-1/COX-2 (ratio of IC50 values),[3],> 185
same,IC50,[3],540 nM
"COc1ccc2nc(-c3cc(C(F)(F)F)nn3-c3ccc(S(N)(=O)=O)cc3)sc2c1 [Example 11, 4-[5-(6-Methoxybenzothiazol-2-yl)-3-trifluoromethyl-1H-pyrazol-1-yl]benzenesulfonamide]",IC50,[2],> 100000 nM
same,COX-1/COX-2 (ratio of IC50 values),[3],> 208
same,IC50,[3],480 nM
"NS(=O)(=O)c1ccc(-n2nc(C(F)(F)F)cc2-c2nc3ccccc3s2)cc1 [Example 14, 4-[5-(Benzothiazol-2-yl)-3-trifluoromethyl-1H-pyrazol-1-yl]-benzenesulfonamide]",IC50,[4],> 100000 nM
same,COX-1/COX-2 (ratio of IC50 values),[5],> 1786
same,IC50,[5],56 nM
"Cc1ccc2nc(-c3cc(C(F)(F)F)nn3-c3ccc(S(N)(=O)=O)cc3)sc2c1 [Example 16, 4-[5-(6-Methylbenzothiazol-2-yl)-3-trifluoromethyl-1H-pyrazol-5-yl]benzenesulfonamide]",IC50,[4],> 100000 nM
same,COX-1/COX-2 (ratio of IC50 values),[5],> 172
same,IC50,[5],580 nM
"CS(=O)(=O)c1ccc(-n2nc(C(F)(F)F)cc2-c2nc3cccc(F)c3s2)cc1 [Example 17, 7-fluoro-2-[1-(4-methylsulfonylphenyl)-3-trifluoromethyl-1H-pyrazol-5-yl]benzothiazole]",IC50,[4],> 100000 nM
same,COX-1/COX-2 (ratio of IC50 values),[5],> 625
same,IC50,[5],160 nM
"NS(=O)(=O)c1ccc(-n2nc(C(F)(F)F)cc2-c2nc3cccc(F)c3s2)cc1 [Example 18, 4-[5-(7-Fluorobenzothiazol-2-yl)-3-trifluoromethyl-1H-pyrazol-1-yl]benzenesulfonamide]",IC50,[4],> 100000 nM
same,COX-1/COX-2 (ratio of IC50 values),[5],> 625
same,IC50,[5],160 nM
same,% Inhibition against Reduction of Gain in Body Weight,[6],75%
same,Edema Inhibition (%) Left Hind Paw (Non-inflamed Paw),[6],116%
same,Edema Inhibition (%) Right Hind Paw (Inflamed Paw),[6],84%
same,"% Inhibition against Change in Relative Weight, Spleen",[6],48%
same,"% Inhibition against Change in Relative Weight, Thymus",[6],48%
same,Inflammation Score Inhibition (%),[6],91%
"NS(=O)(=O)c1ccc(-n2nc(C(F)F)cc2-c2nc3ccccc3s2)cc1 [Example 21, 4-[5-(Benzothiazol-2-yl)-3-difluoromethyl-1H-pyrazol-1-yl]-benzenesulfonamide]",IC50,[4],22000 nM
same,COX-1/COX-2 (ratio of IC50 values),[5],386
same,IC50,[5],57 nM
"CS(=O)(=O)c1ccc(-n2nc(C(F)F)cc2-c2nc3ccc(F)cc3s2)cc1 [Example 22, 6-Fluoro-2-[1-(4-methylsulfonylphenyl)-3-difluoromethyl-1H-pyrazol-5-yl]benzothiazole]",IC50,[4],> 100000 nM
same,COX-1/COX-2 (ratio of IC50 values),[5],> 2000
same,IC50,[5],50 nM
"NS(=O)(=O)c1ccc(-n2nc(C(F)F)cc2-c2nc3ccc(F)cc3s2)cc1 [Example 23, 4-[5-(6-Fluorobenzothiazol-2-yl)-3-difluoromethyl-1H-pyrazol-1-yl]benzenesulfonamide]",IC50,[4],> 100000 nM
same,COX-1/COX-2 (ratio of IC50 values),[5],> 909
same,IC50,[5],110 nM
"NS(=O)(=O)c1ccc(-n2nc(C(F)F)cc2-c2nc3ccc(Cl)cc3s2)cc1 [Example 24, 4-[5-(6-Chlorobenzothiazol-2-yl)-3-difluoromethyl-1H-pyrazol-1-yl]benzenesulfonamide]",IC50,[4],1800 nM
same,COX-1/COX-2 (ratio of IC50 values),[5],21
same,IC50,[5],86 nM
"COc1ccc2nc(-c3cc(C(F)F)nn3-c3ccc(S(N)(=O)=O)cc3)sc2c1 [Example 25, 4-[3-Difluoromethyl-5-(6-methoxybenzothiazol-2-yl)-1H-pyrazol-5-yl]benzenesulfonamide]",IC50,[4],> 100000 nM
same,COX-1/COX-2 (ratio of IC50 values),[5],> 250
same,IC50,[5],400 nM
"Cc1ccc2nc(-c3cc(C(F)F)nn3-c3ccc(S(C)(=O)=O)cc3)sc2c1 [Example 26, 6-Methyl-2-[1-(4-methylsulfonylphenyl)-3-difluoromethyl-1H-pyrazol-5-yl]benzothiazole]",IC50,[4],> 100000 nM
same,COX-1/COX-2 (ratio of IC50 values),[5],> 769
same,IC50,[5],130 nM
Cc1ccc2nc(-c3cc(C(F)F)nn3-c3ccc(S(N)(=O)=O)cc3)sc2c1 [Example 27],IC50,[4],33000 nM
same,COX-1/COX-2 (ratio of IC50 values),[5],623
same,IC50,[5],53 nM
"CS(=O)(=O)c1ccc(-n2nc(C(F)F)cc2-c2nc3cccc(F)c3s2)cc1 [Example 28, 7-Fluoro-2-[1-(4-methylsulfonylphenyl)-3-difluoromethyl-1H-pyrazol-5-yl]benzothiazole]",IC50,[4],> 100000 nM
same,COX-1/COX-2 (ratio of IC50 values),[5],> 1190
same,IC50,[5],84 nM
"NS(=O)(=O)c1ccc(-n2nc(C(F)F)cc2-c2nc3cccc(F)c3s2)cc1 [Example 29, 4-[5-(7-Fluorobenzothiazol-2-yl)-3-difluoromethyl-1H-pyrazol-1-yl]benzenesulfonamide]",IC50,[4],> 100000 nM
same,COX-1/COX-2 (ratio of IC50 values),[5],> 8333
same,IC50,[5],12 nM
same,% Inhibition against Reduction of Gain in Body Weight,[6],73%
same,Edema Inhibition (%) Left Hind Paw (Non-inflamed Paw),[6],124%
same,Edema Inhibition (%) Right Hind Paw (Inflamed Paw),[6],82%
same,"% Inhibition against Change in Relative Weight, Spleen",[6],25%
same,"% Inhibition against Change in Relative Weight, Thymus",[6],80%
same,Inflammation Score Inhibition (%),[6],86%
"Cc1cccc2nc(-c3cc(C(F)F)nn3-c3ccc(S(N)(=O)=O)cc3)sc12 [Example 31, 4-[3-Difluoromethyl-5-(7-methylbenzothiazol-2-yl)-1H-pyrazol-1-yl]benzenesulfonamide]",IC50,[4],> 100000 nM
same,COX-1/COX-2 (ratio of IC50 values),[5],> 417
same,IC50,[5],240 nM
"Cc1ccc2nc(-c3cc(C(F)(F)C(F)(F)F)nn3-c3ccc(S(C)(=O)=O)cc3)sc2c1 [Example 32, 6-Methyl-2-[1-(4-methylsulfonylphenyl)-3-pentafluoroethyl-1H-pyrazol-5-yl]benzothiazole]",IC50,[4],> 100000 nM
same,COX-1/COX-2 (ratio of IC50 values),[5],> 270
same,IC50,[5],370 nM
"Cc1ccc2nc(-c3cc(C(F)(F)C(F)(F)F)nn3-c3ccc(S(N)(=O)=O)cc3)sc2c1 [Example 33, 4-[5-(6-Methylbenzothiazol-2-yl)-3-pentafluoroethyl-1H-pyrazol-5-yl]benzenesulfonamide]",IC50,[4],> 100000 nM
same,COX-1/COX-2 (ratio of IC50 values),[5],> 769
same,IC50,[5],130 nM
NS(=O)(=O)c1ccc(-n2nc(C(F)F)cc2-c2nc3c(F)cccc3s2)cc1 [Example 41],IC50,[4],> 100000 nM
same,COX-1/COX-2 (ratio of IC50 values),[5],> 417
same,IC50,[5],240 nM
